Laboratory results from publication PMC10888562 (International Journal of Molecular Sciences, 2024).
Values joined by “and” are separate entries in the source; they are usually repeats but may differ in a detail not shown here. Equal entries are not always repeated. Where two headings read alike, the source gives them in different places.

Columns and labels:
HT29 colon cells [1] = assay: TMRE mitochondrial membrane potential (MtMP) assay; type: cell-based, human; details: GI50 drug concentration (FCCP 20 μM)
Procedure: This was achieved by determining if the overproduction of ROS induced by these complexes impacts mitochondrial activity by altering MtMP. Briefly, there is evidence showing a strong correlation between increased levels of ROS and mitochondrial impairment. […] The MtMP changes recorded are measured as RFU. […] To investigate the MtMP changes in HT29 treated cells, a TMRE-MtMP Assay Kit (Abcam, Cambridge, MA, USA) was used, as previously described. In 96-well plates, 25,000 cells/mL of HT29 colon cells in DMEM were seeded. Cells were treated with a GI50 drug concentration for each complex. At 24, 48 or 72 h, cells were washed with PBS and stained with tetramethylrhodamine, ethyl ester (TMRE) (1 μM) and incubated for 30 min. TMRE was then removed, and cells were then re-washed with PBS (0.2% BSA), after which phenol red free media was added. The plates were directly scanned to measure fluorescence (expressed as RFU), using the Glo-Max®-Multimode microplate reader (Promega Corporation, Alexandra, VIC, Australia) at an excitation/emission of 549/575 nm. For the positive control, 20 μM carbonyl cyanide 4-(trifluoromethoxy) phenylhydrazone (FCCP)) was added to the cells and incubated for 10 min. The cells were washed with PBS (0.2% BSA) and stained with TMRE (1 μM) for 30 min; this was removed, and phenol red free media was added, and the final solution was scanned as mentioned above.

BE2-C neuroblastoma = test system: BE2-C neuroblastoma; design: method as in PMID 36142383, PMID 37173934, PMID 36296713; details: cited from earlier work
peritoneal carcinoma = test system: peritoneal carcinoma; design: method as in PMID 20535526; details: BD-IX rats with peritoneal carcinoma; cited from earlier work
[2] = test system: cisplatin-resistant ADDP ovarian variant; design: method as in PMID 36142383, PMID 37173934, PMID 36296713; details: cited from earlier work
SJ-G2 glioblastoma = test system: SJ-G2 glioblastoma; design: method as in PMID 36142383, PMID 37173934, PMID 36296713; details: cited from earlier work
[3] = test system: multiple human cell lines; design: method as in PMID 36142383, PMID 37173934, PMID 36296713; details: average over all cell lines; cited from earlier work
A431 skin = test system: A431 skin; design: method as in PMID 36142383, PMID 37173934, PMID 36296713; details: cited from earlier work
MIA pancreas = test system: MIA pancreas; design: method as in PMID 36142383, PMID 37173934, PMID 36296713; details: cited from earlier work
A2780 ovarian = test system: A2780 ovarian; design: method as in PMID 36142383, PMID 37173934, PMID 36296713; details: cited from earlier work
Du145 prostate = test system: Du145 prostate; design: method as in PMID 36142383, PMID 37173934, PMID 36296713; details: cited from earlier work
HT29 colon cells [4] = test system: HT29 colon cells; design: method as in PMID 36142383, PMID 37173934, PMID 36296713; details: cited from earlier work
MCF-7 breast = test system: MCF-7 breast; design: method as in PMID 36142383, PMID 37173934, PMID 36296713; details: cited from earlier work
U87 glioblastoma = test system: U87 glioblastoma; design: method as in PMID 36142383, PMID 37173934, PMID 36296713; details: cited from earlier work
[5] = test system: histone deacetylase (HDAC); assay: Fluorometric HDAC activity assay on extracts of treated HT29 cells; type: cell-based, human; details: HT29 colon cells treated 72 h at GI50 concentration; lower RFU = decline in HDAC activity; HT29 extract control 5154 ± 40
Procedure: All values are expressed as RFU.
To study the HDAC activity in HT29 treated cells, a Fluorometric HDAC Activity Assay Kit ab156064 (Abcam, Cambridge, MA, USA) was used and all sample preparations were made based on the manufacturer’s protocol. A total of 10^6 cells/mL of HT29 cells were seeded in DMEM with serum deprivation for 18 h to synchronise the cells. […] Cells were then washed with cold PBS and resuspended in lysis buffer (10 mM Tris HCl (pH 7.5), 10 mM NaCl, 15 mM MgCl2, 250 mM sucrose, 0.5% NP-40 and 0.1 mM EGTA) and lysed on ice for 20 min. Cells were centrifuged through 4 mL of sucrose cushion (30% sucrose, 10mM Tris HCl (pH 7.5), 10 mM NaCl and 3mM MgCl2) at 1300× g for 10 min at 4 °C. Supernatant was discarded and the pellet was washed and resuspended in extraction buffer (50 mM HEPES-KOH (pH 7.5), 420 mM NaCl, 0.5 mM EDTA 2Na, 0.1 mM EGTA and 10% glycerol) and then sonicated for 30 s. Nuclei were lysed for 30 min on ice and centrifuged at 20,000× g for 30 min. The supernatant was collected, and the samples were prepared for the fluorometric assay according to the manufacturer’s protocol (Histone Deacetylase (HDAC) Activity Assay Fluorometric Kit ab156064, Abcam). The changes in the relative fluorescence intensity (expressed as RFU) were recorded each minute over 60 min using the Glo-Max®-Multimode microplate reader (Promega Corporation, Alexandra, VIC, Australia) at an excitation/emission of 355/460 nm.

H460 lung = test system: H460 lung; design: method as in PMID 36142383, PMID 37173934, PMID 36296713; details: cited from earlier work
HT29 colon = test system: HT29 colon; design: method as in PMID 36142383, PMID 37173934, PMID 36296713; details: cited from earlier work
[6] = test system: non-tumour-derived MCF10A breast line; design: method as in PMID 36142383, PMID 37173934, PMID 36296713; details: cited from earlier work
prostate tumour = test system: prostate tumour; design: method as in PMID 18997969; details: mice with prostate tumour; cited from earlier work

SMILES	MtMP Changes (HT29 colon cells [1]; 24 h, control 542 ± 4) [RFU]	MtMP Changes (HT29 colon cells [1]; 48 h, control 507 ± 11) [RFU]	MtMP Changes (HT29 colon cells [1]; 72 h, control 449 ± 10) [RFU]	GI50 (BE2-C neuroblastoma) [nM]	GI50 [2] [nM]	GI50 (SJ-G2 glioblastoma) [nM]	GI50 [3] [nM]	GI50 (A431 skin) [nM]	GI50 (MIA pancreas) [nM]	GI50 (A2780 ovarian) [nM]	GI50 (Du145 prostate) [nM]	ROS Production (HT29 colon cells [4]; 24 h) [RFU]	ROS Production (HT29 colon cells [4]; 48 h) [RFU]	ROS Production (HT29 colon cells [4]; 72 h) [RFU]	GI50 (MCF-7 breast) [nM]	GI50 (U87 glioblastoma) [nM]	HDAC Inhibition at 72 h [5]	GI50 (H460 lung) [nM]	GI50 (HT29 colon) [nM]	GI50 [6] [nM]	other results
Cc1c(C)c2cccnc2c2ncccc12.N[C@H]1CCCC[C@@H]1N.[Pt] [56MESS, [Pt^II(5,6-Me2phen)(SS-DACH)]^2+]	277 ± 5	211 ± 7	151 ± 7	59 ± 4	13 ± 2	66 ± 22	36 ± 10	29 ± 1	13 ± 2	76 ± 57	4.6 ± 0.4	240 ± 5	218 ± 3	255 ± 4	93 ± 44	35 ± 6.4	1847 RFU and 1847 ± 42 RFU	21 ± 2	10 ± 1.6	16 ± 1	nephrotoxicity (peritoneal carcinoma): caused nephrotoxicity; tumour suppression (peritoneal carcinoma): ineffective in suppressing tumour
N[C@H]1CCCC[C@@H]1N.[Pt+2].c1cnc2c(c1)ccc1cccnc12 [PHENSS, [Pt^II(phen)(SS-DACH)]^2+]	321 ± 7	305 ± 5	257 ± 6	380 ± 46	190 ± 47	330 ± 66	434 ± 110	480 ± 170	200 ± 57	230 ± 30	100 ± 38	174 ± 2	172 ± 9	176 ± 7	1500 ± 500	980 ± 270	3733 ± 37 RFU	360 ± 35	160 ± 45	300 ± 58	rate of tumour regression (prostate tumour): comparable to cisplatin; toxicity (prostate tumour): no toxicity was detected
